# Tests used:
# [1] = system: Peptostreptococcus asaccharolyticus; assay: Agar dilution MIC; format: cell-based
# [2] = system: Porphyromonas asaccharolyticus; assay: Agar dilution MIC; format: cell-based, Porphyromonas asaccharolytica
# [3] = system: Actinomyces odontolyticus; assay: Agar dilution MIC; format: cell-based
# [4] = system: Prevotella heparinolytica; assay: Agar dilution MIC; format: cell-based
# [5] = system: Peptostreptococcus magnus; assay: Agar dilution MIC; format: cell-based; settings: Finegoldia magna
# [6] = system: Porphyromonas spp.; assay: Agar dilution MIC; format: cell-based, Porphyromonas cangingivalis, cansulci, circumdentaria, levii
# [7] = system: Actinomyces israelii; assay: Agar dilution MIC; format: cell-based
# [8] = system: Clostridium clostridioforme; assay: Agar dilution MIC; format: cell-based
# [9] = system: Prevotella bivia; assay: Agar dilution MIC; format: cell-based
# [10] = system: Fusobacterium spp. group 2; assay: Agar dilution MIC; format: cell-based, Fusobacterium mortiferum, necrogenes, ulcerans; settings: Fusobacterium
# [11] = system: Prevotella denticola/loeschii group; assay: Agar dilution MIC; format: cell-based
# [12] = system: Porphyromonas canoris; assay: Agar dilution MIC; format: cell-based
# [13] = system: Bacteroides ureolyticus; assay: Agar dilution MIC; format: cell-based
# [14] = system: Porphyromonas macaccae; assay: Agar dilution MIC; format: cell-based
# [15] = system: Clostridium inocuum; assay: Agar dilution MIC; format: cell-based, Clostridium innocuum
# [16] = system: B. distasonis; settings: Goldstein, et al.; cited from earlier work
# [17] = system: Fusobacterium varium; assay: Agar dilution MIC; format: cell-based
# [18] = system: Porphyromonas gingivalis; assay: Agar dilution MIC; format: cell-based; settings: Porphyromonas gingivalis
# [19] = Porphyromonas, read-out: Minimal Inhibitory Concentration 50% (MIC50)
# [20] = Porphyromonas, 11 isolates, read-out: Minimal Inhibitory Concentration 90% (MIC90)
# [21] = read-out: Minimal Inhibitory Concentration 50% (MIC50)
# [22] = 13 isolates, read-out: Minimal Inhibitory Concentration 90% (MIC90)
# [23] = Clostridium, 11 isolates, read-out: Minimal Inhibitory Concentration 90% (MIC90)
# [24] = Clostridium, read-out: Minimal Inhibitory Concentration 50% (MIC50)
compound,measurement,setting,value
"CO/N=C1\CN(c2nc3c(cc2F)c(=O)c(C(=O)O)cn3C2CC2)CC1CN (racemic) [Gemifloxacin, (R,S)-7-(3-aminomethyl-4-methoxyiminopyrrolidin-1-yl)-1-cyclopropyl-6-fluoro-4-oxo-1,4-dihydro-1,8-naphthyridine-3-carboxylic acid]",Minimal Inhibitory Concentration Range,[1]; 11 isolates,0.125 to 0.25 µg/mL
same,MIC50,"[1]; Peptoniphilus asaccharolyticus, read-out: Minimal Inhibitory Concentration 50% (MIC50)",0.25 µg/mL
same,MIC90,"[1]; Peptoniphilus asaccharolyticus, 11 isolates, read-out: Minimal Inhibitory Concentration 90% (MIC90)",0.25 µg/mL
same,Minimal Inhibitory Concentration Range,[2]; 11 isolates,0.06 to 0.125 µg/mL
same,MIC50,[2]; [19],0.06 µg/mL
same,MIC90,[2]; [20],0.125 µg/mL
same,Minimal Inhibitory Concentration 90% (MIC90),[3]; 10 isolates,2 µg/mL
same,Minimal Inhibitory Concentration Range,[3]; 10 isolates,1 to 2 µg/mL
same,MIC90,"[3]; Schaalia odontolytica, 10 isolates, read-out: Minimal Inhibitory Concentration 90% (MIC90)",≤ 2 µg/mL
same,MIC50,"[3]; Schaalia odontolytica, read-out: Minimal Inhibitory Concentration 50% (MIC50)",2 µg/mL
same,Minimal Inhibitory Concentration 90% (MIC90),[4]; 16 isolates,0.5 µg/mL
same,Minimal Inhibitory Concentration Range,[4]; 16 isolates,0.25 to 0.5 µg/mL
same,Minimal Inhibitory Concentration 90% (MIC90),"[4]; 16 isolates, listed as gemifloxacin",≤ 2 µg/mL
same,MIC50,"[4]; Prevotella heparinolytica, read-out: Minimal Inhibitory Concentration 50% (MIC50)",0.5 µg/mL
same,MIC50,[5]; [21],0.03 µg/mL
same,MIC90,[5]; [22],0.06 µg/mL
same,Minimal Inhibitory Concentration Range,[6]; 11 isolates,0.06 to 0.125 µg/mL
same,MIC50,[6]; [19],0.06 µg/mL
same,MIC90,[6]; [20],0.125 µg/mL
same,Minimal Inhibitory Concentration Range,[7]; 6 isolates,0.5 to 2 µg/mL
same,MIC50,"[7]; Actinomyces israelii, read-out: Minimal Inhibitory Concentration 50% (MIC50)",1 µg/mL
same,MIC90,"[7]; Actinomyces israelii, stated in text only",≤ 2 µg/mL
same,susceptibility to gemifloxacin,[8],relatively susceptible
same,Minimal Inhibitory Concentration 90% (MIC90),[8]; 11 isolates,1 µg/mL
same,MIC90,[8]; [23],≤ 2 µg/mL
same,MIC50,[8]; [24],0.5 µg/mL
same,Minimal Inhibitory Concentration 90% (MIC90),[9]; 21 isolates,8 µg/mL
same,MIC90,"[9]; Prevotella bivia, 21 isolates, read-out: Minimal Inhibitory Concentration 90% (MIC90)",≥ 4 µg/mL
same,MIC50,"[9]; Prevotella bivia, read-out: Minimal Inhibitory Concentration 50% (MIC50)",8 µg/mL
same,MIC50,[10]; [21],4 µg/mL
same,MIC90,"[10]; 12 isolates, read-out: Minimal Inhibitory Concentration 90% (MIC90)",4 µg/mL
same,Minimal Inhibitory Concentration Range,[11]; 6 isolates,0.25 to 8 µg/mL
same,MIC50,"[11]; Prevotella denticola, read-out: Minimal Inhibitory Concentration 50% (MIC50)",0.5 µg/mL
same,Minimal Inhibitory Concentration Range,[12]; 10 isolates,0.06 to 0.25 µg/mL
same,MIC50,"[12]; Porphyromonas canoris, read-out: Minimal Inhibitory Concentration 50% (MIC50)",0.25 µg/mL
same,MIC90,"[12]; Porphyromonas canoris, 10 isolates, read-out: Minimal Inhibitory Concentration 90% (MIC90)",0.25 µg/mL
same,Minimal Inhibitory Concentration 90% (MIC90),[13]; 17 isolates,2 µg/mL
same,MIC90,"[13]; Campylobacter ureolyticus, 17 isolates, read-out: Minimal Inhibitory Concentration 90% (MIC90)",≤ 2 µg/mL
same,MIC50,"[13]; Campylobacter ureolyticus, read-out: Minimal Inhibitory Concentration 50% (MIC50)",≤ 0.015 µg/mL
same,Minimal Inhibitory Concentration Range,[14]; 13 isolates,0.03 to 0.125 µg/mL
same,MIC50,[14]; [19],0.06 µg/mL
same,MIC90,"[14]; Porphyromonas, 13 isolates, read-out: Minimal Inhibitory Concentration 90% (MIC90)",0.125 µg/mL
same,susceptibility to gemifloxacin,[15],relatively susceptible
same,Minimal Inhibitory Concentration 90% (MIC90),[15]; 11 isolates,2 µg/mL
same,MIC90,[15]; [23],≤ 2 µg/mL
same,MIC50,[15]; [24],0.25 µg/mL
same,activity,[16],only limited activity
same,susceptibility pattern of strains,[17],bimodal pattern
same,MIC50,"[17]; Fusobacterium varium, read-out: Minimal Inhibitory Concentration 50% (MIC50)",> 8 µg/mL
same,MIC90,"[17]; Fusobacterium varium, 17 isolates, read-out: Minimal Inhibitory Concentration 90% (MIC90)",> 8 µg/mL
same,MIC50,[18]; [21],0.06 µg/mL
same,MIC90,[18]; [22],0.125 µg/mL

# Reference: patent US6455540B1, “Methods of use of quinolone compounds against anaerobic pathogenic bacteria” (priority 1999, dated 2002)
